Test [1] has as its system Escherichia coli LA290 R64. The test is described as follows: MIC, serial dilution on nutrient agar. The note with it: LA290R64, 18 h, read-out: Minimum Inhibitory Concentrations. Format: cell-based.
Test [2] relates to Escherichia coli K-12. The test is described as follows: MIC, serial dilution on nutrient agar. It is filed as cell-based. The note with it: K12; Escherichia coli K-12; nutrient agar, 37°C, 18 hours; read-out: Minimum Inhibitory Concentrations.
Test [3] concerns Salmonella typhosa T-63. The test is described as follows: MIC, serial dilution on nutrient agar. The note with it: Salmonella enterica, 18 h, read-out: Minimum Inhibitory Concentrations. It is filed as cell-based.
For test [4], the system named is Escherichia coli NIHJ. The test is described as follows: MIC, serial dilution on nutrient agar. Format: cell-based. The note with it: Escherichia coli NIHJ; nutrient agar, 37°C, 18 hours; read-out: Minimum Inhibitory Concentrations.
For test [5], the system named is Shigella dysenteriae JS 11910. The test is described as follows: MIC, serial dilution on nutrient agar. It is filed as cell-based. The note with it: JS11910, 18 h, read-out: Minimum Inhibitory Concentrations.
The test system of test [6] is drug-resistant bacteria. The note with it: cited from earlier work.
In test [7] the test system is Escherichia coli LA290 R55. The test can be described thus: MIC, serial dilution on nutrient agar. The note with it: LA290R55, 18 h, read-out: Minimum Inhibitory Concentrations. It is filed as cell-based.
Test [8] concerns Shigella flexneri 4b JS 11811. The test is described as follows: MIC, serial dilution on nutrient agar. The note with it: 4BJS11811, 37°C, 18 hours, read-out: Minimum Inhibitory Concentrations. It is filed as cell-based. In outline:
(§1)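 Agar serial dilution in nutrient agar medium, 37°C. MIC (mcg/ml) read after 18 h incubation.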

For test [9], the system named is Escherichia coli K-12 ML 1630. The test is described as follows: MIC, serial dilution on nutrient agar. Format: cell-based. The note with it: K12ML1630, 37°C, 18 hours, read-out: Minimum Inhibitory Concentrations. Put shortly: as §1
The test system of test [10] is Shigella sonnei JS 11746. The test is described as follows: MIC, serial dilution on nutrient agar. The note with it: JS11746, 37°C, 18 hours, read-out: Minimum Inhibitory Concentrations. Format: cell-based. In outline:
as §1

The test system of test [11] is kanamycin-resistant strains. The note with it: strains phosphorylating the 3'-hydroxyl group of kanamycins; cited from earlier work.
Test [12] relates to Pseudomonas aeruginosa TI-13. The test can be described thus: MIC, serial dilution on nutrient agar. It is filed as cell-based. The note with it: Pseudomonas aeruginosa, TI13, 18 h, read-out: Minimum Inhibitory Concentrations.
Test [13] relates to Pseudomonas aeruginosa No.12. The test is described as follows: MIC, serial dilution on nutrient agar. The note with it: Pseudomonas aeruginosa No.12; nutrient agar, 37°C, 18 hours; read-out: Minimum Inhibitory Concentrations. It is filed as cell-based.
The test system of test [14] is Proteus vulgaris OX 19. The test is described as follows: MIC, serial dilution on nutrient agar. Format: cell-based. The note with it: OX19; Proteus vulgaris OX 19; nutrient agar, 37°C, 18 hours; read-out: Minimum Inhibitory Concentrations.
The test system of test [15] is Escherichia coli JR66/W677. The test can be described thus: MIC, serial dilution on nutrient agar. It is filed as cell-based. The note with it: Escherichia coli JR66/W677; nutrient agar, 37°C, 18 hours; read-out: Minimum Inhibitory Concentrations.
Test [16] relates to Klebsiella pneumoniae PCI 602. The test is described as follows: MIC, serial dilution on nutrient agar. Format: cell-based. The note with it: PCI602; Klebsiella pneumoniae PCI 602; nutrient agar, 37°C, 18 hours; read-out: Minimum Inhibitory Concentrations.
Test [17] concerns Bacillus subtilis PCI 219. The test is described as follows: MIC, serial dilution on nutrient agar. Format: cell-based. The note with it: PCI219; Bacillus subtilis PCI 219; nutrient agar, 37°C, 18 hours; read-out: Minimum Inhibitory Concentrations.
Test [18] concerns Staphylococcus aureus FDA 209P. The test can be described thus: MIC, serial dilution on nutrient agar. Format: cell-based. The note with it: FDA209P; Staphylococcus aureus FDA 209P; nutrient agar, 37°C, 18 hours; read-out: Minimum Inhibitory Concentrations.
Test [19] concerns Escherichia coli JR66/W677. The note with it: strain adenylylating the 2"-hydroxyl group; cited from earlier work.
The test system of test [20] is Staphylococcus aureus Smith. The test is described as follows: MIC, serial dilution on nutrient agar. The note with it: Staphylococcus aureus Smith; nutrient agar, 37°C, 18 hours; read-out: Minimum Inhibitory Concentrations. Format: cell-based.
The test system of test [21] is Bacillus anthracis. The test is described as follows: microbe, parasite or virus in culture. It is filed as cell-based. The note with it: 18 h, read-out: Minimum Inhibitory Concentrations.
Test [22] has as its system Pseudomonas aeruginosa A3. The test is described as follows: MIC, serial dilution on nutrient agar. Format: cell-based. The note with it: Pseudomonas aeruginosa, A3, 18 h, read-out: Minimum Inhibitory Concentrations.
Test [23] has as its system Escherichia coli LA290 R56. The test can be described thus: MIC, serial dilution on nutrient agar. Format: cell-based. The note with it: LA290R56, 18 h, read-out: Minimum Inhibitory Concentrations.
Test [24] deals with Pseudomonas aeruginosa GN315. The test is described as follows: MIC, serial dilution on nutrient agar. It is filed as cell-based. The note with it: Pseudomonas aeruginosa GN315; nutrient agar, 37°C, 18 hours; read-out: Minimum Inhibitory Concentrations.
In test [25] the test system is Mycobacterium smegmatis ATCC 607. The test is described as follows: MIC, serial dilution on nutrient agar. The note with it: Mycolicibacterium smegmatis, ATCC607; Mycobacterium smegmatis ATCC 607; nutrient agar, 37°C, 18 hours; read-out: Minimum Inhibitory Concentrations. Format: cell-based.
The test system of test [26] is Klebsiella pneumoniae 22 -3038. The test is described as follows: MIC, serial dilution on nutrient agar. It is filed as cell-based. The note with it: 223038; Klebsiella pneumoniae 22 -3038; nutrient agar, 37°C, 18 hours; read-out: Minimum Inhibitory Concentrations.
Test [27] concerns Bacillus subtilis NRRL B-558. The test is described as follows: MIC, serial dilution on nutrient agar. It is filed as cell-based. The note with it: NRRLB558; Bacillus subtilis NRRL B-558; nutrient agar, 37°C, 18 hours; read-out: Minimum Inhibitory Concentrations.
The test system of test [28] is Pseudomonas aeruginosa 99. The test can be described thus: MIC, serial dilution on nutrient agar. It is filed as cell-based. The note with it: Pseudomonas aeruginosa 99; nutrient agar, 37°C, 18 hours; read-out: Minimum Inhibitory Concentrations.
For test [29], the system named is Escherichia coli K-12 ML 1629. The test is described as follows: MIC, serial dilution on nutrient agar. It is filed as cell-based. The note with it: K12ML1629; Escherichia coli K-12 ML 1629; nutrient agar, 37°C, 18 hours; read-out: Minimum Inhibitory Concentrations.
Test [30] concerns Bacillus cereus ATCC 10702. The test can be described thus: MIC, serial dilution on nutrient agar. Format: cell-based. The note with it: ATCC10702; Bacillus cereus ATCC 10702; nutrient agar, 37°C, 18 hours; read-out: Minimum Inhibitory Concentrations.
Test [31] deals with Escherichia coli K-12 ML 1410 R81. The test is described as follows: MIC, serial dilution on nutrient agar. Format: cell-based. The note with it: 18 h, read-out: Minimum Inhibitory Concentrations.
For test [32], the system named is Sarcina lutea PCI 1001. The test is described as follows: MIC, serial dilution on nutrient agar. Format: cell-based. The note with it: Micrococcus luteus, PCI1001; Sarcina lutea PCI 1001; nutrient agar, 37°C, 18 hours; read-out: Minimum Inhibitory Concentrations.
For test [33], the system named is Corynebacterium bovis 1810. The test is described as follows: MIC, serial dilution on nutrient agar. It is filed as cell-based. The note with it: Corynebacterium bovis 1810; nutrient agar, 37°C, 18 hours; read-out: Minimum Inhibitory Concentrations.
Test [34] relates to Escherichia coli K-12 ML 1410. The test is described as follows: MIC, serial dilution on nutrient agar. Format: cell-based. The note with it: Escherichia coli, K12ML1410, 18 h, read-out: Minimum Inhibitory Concentrations.
In test [35] the test system is Staphylococcus aureus Terejima. The test can be described thus: MIC, serial dilution on nutrient agar. It is filed as cell-based. The note with it: Staphylococcus aureus Terejima; nutrient agar, 37°C, 18 hours; read-out: Minimum Inhibitory Concentrations.
Test [36] relates to Salmonella enteritidis 1891. The test can be described thus: MIC, serial dilution on nutrient agar. It is filed as cell-based. The note with it: Salmonella enterica, ENTERITIDIS, 18 h, read-out: Minimum Inhibitory Concentrations.
For test [37], the system named is Escherichia coli W677. The test is described as follows: MIC, serial dilution on nutrient agar. Format: cell-based. The note with it: Escherichia coli W677; nutrient agar, 37°C, 18 hours; read-out: Minimum Inhibitory Concentrations.
The test system of test [38] is kanamycin-resistant bacteria. The note with it: some kanamycin-resistant bacteria; cited from earlier work.
In test [39] the test system is ribostamycin-resistant bacteria. The note with it: some ribostamycin-resistant bacteria; cited from earlier work.

Consider 2 compounds from US3940382A, “1,2'-Di-N-substituted kanamycin B compounds” (Zaidan Hojin Biseibutsu Kagaku Kenkyu Kai, priority 1973, dated 1976).

≈ marks a conversion by molar mass, not a printed value. Some results are limits rather than exact numbers.

As to `NC[C@@H]1CC[C@@H](N)[C@@H](O[C@H]2[C@H](O)[C@@H](O[C@H]3O[C@H](CO)[C@@H](O)[C@H](N)[C@H]3O)[C@H](N)C[C@@H]2N)O1` [DKB, 3',4'-dideoxykanamycin B, reference compound], the MIC in test [1] was 6.25 µg/mL (≈ 13.8 µM); in test [2], 0.78 µg/mL (≈ 1.73 µM); in test [3], less than 0.2 µg/mL; in test [4], 0.39 µg/mL (≈ 0.864 µM); in test [5], 1.56 µg/mL (≈ 3.45 µM); in [7], 50 µg/mL (≈ 111 µM). For the same compound, the MIC was 1.56 µg/mL (≈ 3.45 µM) in test [8]; 0.78 µg/mL (≈ 1.73 µM) in test [9]; 0.78 µg/mL (≈ 1.73 µM) in [10]; 1.56 µg/mL (≈ 3.45 µM) in test [12]; 0.78 µg/mL (≈ 1.73 µM) in [13]; less than 0.2 µg/mL in [14]. Moreover, the MIC in test [15] was 50 µg/mL (≈ 111 µM); in test [16], 0.39 µg/mL (≈ 0.864 µM); in test [17], less than 0.2 µg/mL; in test [18], less than 0.2 µg/mL; in test [20] it was less than 0.2 µg/mL; in [21], less than 0.2 µg/mL. Besides, the MIC is 1.56 µg/mL (≈ 3.45 µM) in test [22]; 12.5 µg/mL (≈ 27.7 µM) in test [23]; greater than 100 µg/mL in test [24]; 0.39 µg/mL (≈ 0.864 µM) in [25]; 100 µg/mL (≈ 221 µM) in test [26]; less than 0.2 µg/mL in [27]. Also, the MIC in test [28] amounted to 3.13 µg/mL (≈ 6.93 µM); in test [29], 0.78 µg/mL (≈ 1.73 µM); in [30] it was 0.78 µg/mL (≈ 1.73 µM); in test [31] it was 1.56 µg/mL (≈ 3.45 µM); in [32] it was 6.25 µg/mL (≈ 13.8 µM); in [33], 3.13 µg/mL (≈ 6.93 µM). The MIC in test [34] was 1.56 µg/mL (≈ 3.45 µM); in test [35], less than 0.2 µg/mL; in [36], 1.56 µg/mL (≈ 3.45 µM); in [37], 0.2 µg/mL (≈ 0.443 µM). Besides, in test [6], the “antibacterial activity against the drug-resistant bacteria” value was “improved antibacterial activity”. Moreover, the “effectiveness against kanamycin-resistant strains” value in test [11] is “actually effective”. Further, the “activity against kanamycin-resistant strains such as Escherichia coli JR66/W677” value in [19] is “practically inactive”.
On to `NCC[C@H](O)C(=O)N[C@@H]1C[C@H](N)[C@@H](O[C@H]2O[C@H](CN)[C@@H](O)[C@H](O)[C@H]2N)[C@H](O[C@@H]2O[C@H](CO)[C@@H](O)[C@H]2O)[C@H]1O` [butirosin B, 1-N-[(S)-α-hydroxy-γ-amino-n-butyryl]-ribostamycin], for which, in test [38], the “activity against kanamycin-resistant bacteria” value is “active”. Further, the “activity against ribostamycin-resistant bacteria” value in test [39] is listed as “active”.
